From patent publication US20230141988A1, “PHARMACEUTICAL COMPOSITION FOR USE IN THE TREATMENT OF NEUROLOGICAL DISEASES” (Aclipse One Inc., priority 2020, published 2023)
Where “and” joins values, the source holds several entries; their conditions need not be identical. Equal values may be shown once.

Columns and labels:
[1] = in vivo
Description: Three non-naïve male beagle dogs supplied by Marshall Bioresources (Beijing, China) were used in this study. The animals were confirmed healthy before being assigned to the study. Each animal was given a unique identification number which was marked on ear and written on the cage card. The room(s) were controlled and monitored for relative humidity (targeted mean range 40% to 70%, and any excursion from this range for more than 3 hours will be documented as a deviation) and temperature (targeted mean range 18° C. to 26° C., and any excursion from this range will be documented as a deviation) with 10 to 20 air changes/hour. The rooms were on a 12-hour light/dark cycle except when interruptions are necessitated by study activities.
Animals were fed twice daily. Stock Dogs were fed approximately 220 grams of Certified Dog Diet daily (Beijing Keao Xieli Feed Co., Ltd. Beijing, P. R. China). These amounts could be adjusted as necessary based on food consumption of the group or an individual body weight change. For PO groups, animals were fed at 3:30 to 4:00 pm on the day prior to oral dosing and any remaining food was removed at 7:00 pm. Food was withheld until 4-hour post-dose. Animals were fed once on the day of dosing, with the amount of approximately 220 grams.
Three male non-naïve beagle dogs were assigned to this study. […] The detailed dosing and sampling regimens are described in the following two tables:
PO formulation preparations were processed in study facility on the day of dosing according to instructions provided by the sponsor. The concentrations of compounds in all dosing solutions were determined by HPLC/UV. Two aliquots were taken from each clear and three aliquots were taken from suspension formulations. All formulation samples were stored at 2-8° C. until analyzed by HPLC/UV. All dose formulation samples were analyzed in duplicate using HPLC/UV.
In plasma, approximately 0.5 mL blood was collected at each time point. All blood samples were collected from a peripheral vessel. All blood samples were transferred into commercially available tubes containing Potassium (K2) EDTA on wet ice and processed for plasma. Samples were centrifuged (3,000×g for 10 minutes at 2 to 8° C.) within 30 minutes of collection. After centrifugation, the stabilizing agent was added to the harvested plasma within 60 minutes. The samples were kept on ice and protected from sunlight (under yellow light). The stabilizing agent was ascorbic acid 200 mg/mL added in a proportion of 10% in plasma. The plasma samples were divided into two equal samples with each at least 0.2 ml (0.2*2 mL/sample) and transferred into labeled polypropylene micro-centrifuge tubes and stored frozen in a freezer set to maintain […] or lower until analyzed.
In CSF, about 0.1 mL/time point (50 μL*2 aliquots) of CSF were collected via the catheter implanted in the Cisterna Magna of conscious beagle dogs without any sedation. The procedures for CSF collection and handling were as follows: a polypropylene tube was weighed to accuracy of 0.1 mg (weight #1). CSF was collected and weighed the sample tube again (weight #2). Total CSF weight=weight #2−weight #1. The samples were kept on ice and protected from sunlight (under yellow light). Stabilizing agent was added within 60 minutes. The stabilizing agent was ascorbic acid 200 mg/mL added in a proportion of 10% in CSF. CSF samples were frozen on dry ice and stored at −60° C. or lower until bio-analysis.
For brain samples, different regions of brain were collected. Dogs were anesthetized and euthanasia according to SOP and collected the brain. The striatum, cortex and cerebellum were token rapidly and homogenized immediately (within 30 min) after being harvested. All the samples were stored at −60° C. or lower freezer finally.
For tissue homogenization, the homogenization solution was methanol:10 mM PBS=1:2 and set on dry ice. An empty conical tube was weighed, recorded, and set on dry ice.

[2] = Solubility in aqueous media / aqueous buffer solutions; type: physicochemical; details: free base, aqueous media at various pH values
[3] = plasma, fed male Cynomolgus Monkeys, PO 10 mg/kg, animal 168777C
Description: (§1) Three male Cynomolgus Monkeys were administrated a single oral dose at 10 mg/kg. The oral vehicle was 10% (w/v) HP-β-CD in water.
(§2) Male Cynomolgus Monkeys were purchased from Topgene Biotechnology. The animals were 2-5 years old with body weights of 2.0-5.0 kg on the dosing date. The animals were housed in a 12-hour light/12-hour dark cycle environment and had free access to food and water.
(§3) All animals for PO administration were fasted overnight prior to dosing and will be fed approximately 2 hours after dosing.
(§4) Three male Cynomolgus Monkeys were assigned to this study. […] The dosing regimens and formulation (vehicle) compositions are described in the following table below:
(§5) Animals were weighed prior to dose administration on the day of dosing for calculating the actual dose volume. The dosages were prepared as illustrated in the table below:
(§6) Blood samples were taken at the following times:
(§7) Whole blood samples were gently inverted several times to ensure anticoagulation then placed on wet ice prior to centrifugation. Within 30 minutes of collection, the samples were centrifuged at approximately 4,000×g (force) for 5 minutes at 2 to 8° C. to obtain plasma. The stabilizing agent, ascorbic acid at 200 mg/mL, was added in a proportion of 10% in plasma. The plasma samples were stored in a freezer at −75±15° C. prior to analysis. The completion time from collection was less than 60 min. The resultant plasma samples will be immediately separated divided into 2 aliquots (˜75 μL each) and transferred to cryogenic vial. Samples will be maintained on wet ice throughout processing, and stored in a freezer at −75±15° C. prior to analysis. Samples should be protected from ambient light (under sodium lamp).
(§8) Calibration standard working solutions were prepared at concentrations of 2, 5, 10, 20, 100, 500, 1000, 5000, 10000 ng/mL by serial dilution of the standard stock solution in 1:1 acetonitrile:water. Quality control working solutions at concentrations of 5, 10, 20, 500 and 8000 ng/mL were prepared by serial dilution of the standard stock solution in 1:1 acetonitrile:water. The QC samples were prepared on the day of analysis in the same way as calibration standards.
(§9) Samples were prepared with 5 μL of each calibration standard working solution (2, 5, 10, 20, 100, 500, 1000, 5000, 10000 ng/mL) added to 50 μL of the blank Cynomolgus Monkeys plasma to achieve calibration standards concentrations of 0.2, 0.5, 1, 2, 10, 50, 100, 500, 1000 ng/mL (relative to a 50-4, plasma aliquot). Quality Control (QC) samples at 0.5 ng/mL (low-1), 1 ng/mL (low-2), 2 ng/mL (low-3), 50 ng/mL (mid) and 800 ng/mL (high) for plasma were prepared independently for those used for the calibration curves.
(§10) Total volumes of 55 μL of standards, 55 μL of QC samples and 55 μL of unknown samples (50 μL of plasma with 5 μL of 1:1 acetonitrile:water) were added to 200 μL of acetonitrile containing IS to precipitate proteins. Then the samples were vortexed for 30 sec. […] All of the samples were processed on ice.
(§11) The LC-MS/MS system consisted of two Shimadzu LC-30AD pumps, a DGU-20A5R degasser, a Rack changer II and an AB Sciex Triple Quad 5500 LC/MS/MS mass spectrometer. Chromatographic separation was performed on Agilent ZORBAX XDB-Phenyl 5 μm (50×2.1 mm) at room temperature. The mobile phase was composed of A: 5% Acetonitrile/95% water (0.1% Formic acid); B: 95% Acetonitrile/5% water (0.1% Formic acid). The flow rate was 0.6 mL/min. The injection volume was 2 μL.
(§12) A multiple reaction monitoring (MRM) method was selected for quantitative analysis. […] The instrument parameters were set as follows: ion spray voltage: 5500 V; curtain gas: 40 psi; ion source gas 1: 50 psi; ion source gas 2: 50 psi; temperature: 450° C. The compound dependent parameters are listed as follows:
(§13) HPLC flow rate was set at 0.6 mL/min with the following conditions:

[4] = in vivo; details: male, C57BL/6J, mouse
Description: 9 male C57BL/6J mice following administration of a single subcutaneous dose of 4.40 mg/kg. The vehicle for the subcutaneous formulation contained “0.1% sodium metabisulfite solution”.
Male C57BL/6J mice were purchased from Si Bei Fu Laboratory Animal Technology Co. Ltd (Beijing, China). The animals were about 8 weeks old with body weights of 20-30 g on the dosing date. The animals were housed in a 12-hour light/12-hour dark cycle environment and had free access to food and water. All animals were fasted overnight and fed after 4 hours collection.
For group 1, plasma samples were collected from dorsal metatarsal vein at each time point after subcutaneous administrations.
For plasma samples, about 30 μL or 300 μL of blood samples were collected from each animal via dorsal metatarsal vein or heart. These blood samples were placed into the tubes containing K2EDTA. And centrifugation at 3000 g for 10 minutes in a 4° C. centrifuge. The completion time from collection was less than 30 min. The stabilizing agent of ascorbic acid at 200 mg/mL was added in a proportion of 10% in plasma. The plasma samples were stored in a freezer at −75±15° C. prior to analysis. The completion time from collection was less than 60 min.
For brain and CSF samples, The animals were fully exsanguinated with a rising concentration of CO2 gas prior to CSF and brain collection.
For CSF collection, incision was made by scissors on the neck of the rats to expose the foramen magnum. A syringe fitted with a venoclysis needle was used to sample the CSF, the tip of the needle was inserted into the membrane of foramen magnum about 1-2 mm, and a negative pressure was applied by pulling a stopcock a small length of the syringe to extract CSF fluids into a tube. The stopcock was further actuated to until a sufficient amount of CSF was collected. There should be no blood in the CSF fluid. A stabilizing agent of ascorbic acid at 200 mg/mL was added in a proportion of 10% in CSF.
For brain collection. Brain samples were collected at an adopted time point, and washed 3 times with cold saline, then dried with clean gauze and put into the weighed tube, quick frozen in an ice box and kept at −75±15° C. All brain samples were weighted and homogenized with phosphate buffered saline (PBS) by brain weight (g) to PBS volume (mL) ratio 1:3 before analysis. The stabilizing agent of ascorbic acid at 200 mg/mL was added in a proportion of 10% in grain homogenate. The actual concentration was the detected value multiplied by the dilution factor. Brain samples were collected at designed time point, quickly homogenized and kept at −75±15° C.
Calibration standard working solutions were prepared at concentrations of 2, 5, 10, 20, 50, 100, 500, 1000, 5000 and 10000 ng/mL by serial dilution of the standard stock solution in 50% acetonitrile in water. Quality control working solutions at concentrations of 5, 10, 500 and 8000 ng/mL were prepared by serial dilution of the standard stock solution in 50% acetonitrile in water. These QC samples were prepared on the day of analysis in the same way as calibration standards.
For plasma and brain samples, 3 μL of each calibration standard working solution (2, 5, 10, 20, 50, 100, 500, 1000, 5000 and 10000 ng/mL) was added to 30 μL of the blank C57BL/6J mouse plasma or brain homogenate (with 10% 200 mg/mL ascorbic acid) to achieve calibration standards of 0.2-1000 ng/mL (0.2, 0.5, 1, 2, 5, 10, 50, 100, 500, 1000 ng/mL) in a total volume of 33 μL. Quality Control (QC) samples at 0.5 ng/mL (low-1), 1 ng/mL (low-2), 50 ng/mL (mid), 800 ng/mL (high) for plasma were prepared independently for those used for the calibration curves. These QC samples were prepared on the day of analysis in the same way as calibration standards.

[5] = in vivo; details: male, cynomolgus monkey, po, 10 mg/kg, Plasma concentration, fed male Cynomolgus Monkeys
Description: as §1, §2, §3, §4, §5, §6, §7, §8, §9, §10, §11, §12, §13

[6] = male, beagle, dog, in vivo, po, 10 mg/kg
[7] = male, beagle, dog, in vivo, po, 10 mg/kg, 0.5 h
[8] = single PO 10 mg/kg, 0.500 h, individual animal

`CN1CCc2cccc3c2[C@@H]1Cc1ccc(O)c(O)c1-3` showed an AUC(0-t) [1, 6] of 86.4 ng·h/mL, a Tlast [1, 6] of 0.500 h and a CSF concentration [1, 7] of 2.71 ng/mL. The Striatum concentration [1, 7] was 145 ng/g, the Kp ([1]; male, beagle, dog, in vivo, po, 10 mg/kg, AUClast ratio of CSF to plasma) was 0.00888 ± 0.0031 and the Cmax ([1]; male, beagle, dog, in vivo, po, 10 mg/kg, Cmax, plasma, single PO 10 mg/kg, individual animal) was 265 ng/mL. It also gave an MRT last ([1]; male, beagle, dog, in vivo, po, 10 mg/kg, MRTlast) of 19.7 min, a concentration at […] ([1]; male, beagle, dog, in vivo, po, 10 mg/kg, plasma concentration) of 255 ng/mL and a concentration at 0.033 h ([1]; male, beagle, dog, in vivo, po, 10 mg/kg, plasma concentration, single PO 10 mg/kg, 119 s, individual animal) of 2.92 ng/mL. For the same molecule, the Kp at 0.5 h ([1]; male, beagle, dog, in vivo, po, 10 mg/kg, ratio of cerebellum/plasma) was 0.505 ± 0.117, the Kp at 0.5 h ([1]; male, beagle, dog, in vivo, po, 10 mg/kg, ratio of cortex/plasma) was 0.704 ± 0.184 and the Kp at 0.5 h ([1]; male, beagle, dog, in vivo, po, 10 mg/kg, ratio of striatum/plasma) was 0.666 ± 0.0544. The Cerebellum concentration [1, 8] was 129 ng/g, the Cortex concentration [1, 8] was 124 ng/g and the Striatum concentration [1, 8] was 137 ng/g. For the same molecule, the solubility [2] was “low solubilities”, the AUClast/D [3] was 4.26 mg·h/mL and the concentration at 0.5 h ([4]; CSF concentration) was 9.59 ng/mL. For the same molecule, the concentration at […] ([4]; CSF concentration) was 20.5 ng/mL, the concentration at 0.5 h ([4]; plasma concentration) was 169 ng/mL and the concentration at 1 h ([4]; plasma concentration) was 52 ng/mL. The concentration at 2 h ([4]; plasma concentration) was 14.9 ng/mL, the concentration at […] ([4]; plasma concentration) was 760 ng/mL and 721 ng/mL and the concentration at 0.5 h ([4]; plasma concentration, Mean) was 187 ng/mL. For the same molecule, the concentration at 1 h ([4]; plasma concentration, Mean) was 41 ng/mL, the concentration at 2 h ([4]; plasma concentration, Mean) was 18.7 ng/mL and the concentration at […] ([4]; plasma concentration, Mean) was 970 ng/mL and 692 ng/mL. For the same molecule, the concentration at 0.5 h ([5]; animal 168777C) was 4.15 ng/mL, the concentration at 0.5 h ([5]; animal 168779C) was 1.26 ng/mL and the concentration at 0.5 h ([5]; animal 169939C) was 0.975 ng/mL. The concentration at 1 h ([5]; 1 h, animal 169939C) was 2.81 ng/mL, the concentration at 2 h ([5]; animal 168777C) was 6.27 ng/mL and the concentration at 2 h ([5]; animal 168779C) was 6.27 ng/mL. It also gave a concentration at 4 h ([5]; animal 168779C) of 8.04 ng/mL, a concentration at 4 h ([5]; animal 169939C) of 5.91 ng/mL and a concentration at 8 h ([5]; 8 h, animal 168777C) of 1.13 ng/mL.
